The nature of data set [1]: Cytotoxicity against human MCF7 cells assessed as cell survival at 10 uM after 48 hrs by MTT assay relative to control. Type of data set: cell-based. The note with it: read-out: Survival.
The species named for a further data set is Homo sapiens. Briefly: Inhibition of P-gp in human MCF7/ADR cells assessed as potentiation of doxorubicin-induced cytotoxicity at 10 uM after 48 hrs by MTT assay relative to control. Type of data set: cell-based.
Data set [2] is described as follows: Cytotoxicity against human MCF7/ADR cells assessed as cell survival at 10 uM after 48 hrs by MTT assay relative to control. The conditions noted are these: MCF7/ADR cells (NCI/ADR-RES), read-out: Survival. Type of data set: cell-based. Background: Tetrazolium assays rely on reduction of a dye to a coloured formazan, in cell work by metabolically active cells.

The test system of another data set is NCI/ADR-RES. Description: Cytotoxicity against human MCF7/ADR cells after 48 hrs by MTT assay. Type of data set: cell-based.
The test system of the next data set is MCF7. Briefly: Cytotoxicity against human MCF7 cells after 48 hrs by MTT assay. Type of data set: cell-based. The note with it: MCF7, 48 h.
The test system of the next data set is HEK293. Briefly: Cytotoxicity against HEK293 cells after 48 hrs by MTT assay. Type of data set: cell-based. The note with it: Homo sapiens, HEK293, 48 h.
A further data set relates to P-gp. Description: Therapeutic index, ratio of IC50 for HEK293 cells to EC50 for inhibition of P-gp in human MCF7/ADR cells assessed as potentiation of doxorubicin-induced cytotoxicity. The conditions noted are these: HEK293 cells (IC50) and MCF7/ADR cells (EC50). Type of data set: toxicity, cell-based.
A short description of data set [3]: Inhibition of P-gp in human MCF7/ADR cells assessed as potentiation of doxorubicin-induced cytotoxicity after 48 hrs by MTT assay. Type of data set: cell-based. The note with it: NCI/ADR-RES.

pEC50, pIC50: −log10 of the molar value.

By pIC50 is commonly meant the negative decadic logarithm of the IC50, by convention in mol/L. Read a high pIC50 as a small IC50. For the molecule `C=C1[C@H](OC(=O)C(C)C)[C@@H](OC(C)=O)[C@@H](OC(C)=O)C(C)(C)/C=C/[C@H](C)[C@H](OC(C)=O)[C@@]2(O)C[C@@](C)(OC(C)=O)[C@H](OC(C)=O)[C@@H]2[C@H]1OC(=O)c1ccccc1`, the viability at 48 h, 10 µM is 94.6% in data set [1] and more than 100% in data set [2]. In the data set filed under Homo sapiens, the fold change (FC) amounted to 10.2. The pIC50 in the data set on NCI/ADR-RES and in the data set on MCF7 was less than 4.00 each time.

As a reminder, the pEC50 is −log10 of the EC50, conventionally taken in molar units. For `C=C1[C@H](OC(=O)C(C)C)[C@@H](OC(C)=O)[C@@H](OC(C)=O)C(C)(C)/C=C/[C@H](C)[C@H](OC(=O)c2ccccc2)[C@@]2(O)C[C@@](C)(OC(C)=O)[C@H](OC(C)=O)[C@@H]2[C@H]1OC(=O)CC`, the viability at 48 h, 10 µM turned out to be 93.3% in data set [1] and 92.8% in data set [2]. In addition, the fold change (FC) in the data set listed under Homo sapiens turned out to be 12.5. Further, the pIC50 with NCI/ADR-RES is less than 4.00; in the data set on HEK293 it was 4.17; with MCF7, less than 4.00. The selectivity ratio in the data set with P-gp turned out to be 378. Further, the pEC50 in data set [3] is 6.75.

As for `CC(=O)O[C@H]1[C@@H](OC(C)=O)C(C)(C)/C=C/[C@H](C)[C@H](OC(C)=O)[C@@]2(O)C[C@@](C)(OC(C)=O)[C@H](O)[C@@H]2[C@H]2OC(=O)CC[C@@]2(OC(=O)c2ccccc2)[C@@H]1OC(=O)C(C)C`, the viability at 48 h, 10 µM in data set [1] is 98.5%; in data set [2], more than 100%. In the data set filed under Homo sapiens, the fold change (FC) stood at 13. Further, the pIC50 with NCI/ADR-RES was less than 4.00; in the data set with HEK293 it was 4.37; with MCF7, 4.19. Moreover, the selectivity ratio in the data set with P-gp was determined as 346. For the same molecule, in data set [3], the pEC50 is 6.90.

With `C=C1[C@H](OC(=O)CC)[C@@H](OC(C)=O)[C@@H](OC(C)=O)C(C)(C)/C=C/[C@H](C)[C@H](OC(=O)c2ccccc2)[C@@]2(O)C[C@@](C)(OC(C)=O)[C@H](OC(C)=O)[C@@H]2[C@H]1OC(=O)C(C)C`, the results for the viability at 48 h, 10 µM in data set [1] and in data set [2] were 83.3% and 92.5%, respectively. The fold change (FC) in the data set listed under Homo sapiens stood at 13.5. Moreover, the results for the pIC50 with NCI/ADR-RES, in the data set with HEK293 and in the data set on MCF7 were less than 4.00, 4.23 and less than 4.00, respectively. Further, in the data set with P-gp, the selectivity ratio was 438. In addition, in data set [3], the pEC50 is 6.87.

With `C=C1[C@H](OC(=O)C(C)C)[C@@H](OC(C)=O)[C@@H](OC(C)=O)C(C)(C)/C=C/[C@H](C)[C@H](OC(=O)c2ccccc2)[C@@]2(O)C[C@@](C)(OC(C)=O)[C@H](OC(C)=O)[C@@H]2[C@H]1OC(=O)c1ccccc1`, the viability at 48 h, 10 µM in data set [1] turned out to be 93.2%; in data set [2] it was 97.7%. In addition, in the data set listed under Homo sapiens, the fold change (FC) is 20.9. In addition, the results for the pIC50 in the data set with NCI/ADR-RES, in the data set with HEK293 and in the data set with MCF7 were less than 4.00, 4.21 and 4.27, respectively. Also, the selectivity ratio in the data set on P-gp amounted to 661. Moreover, the pEC50 in data set [3] is 7.03.

As to `C=C1[C@H](OC(C)=O)[C@H]2[C@@H](OC(C)=O)[C@@H](C)C[C@]2(OC(C)=O)C(=O)[C@@H](C)/C=C/C(C)(C)C(=O)[C@H](OC(C)=O)[C@H]1OC(=O)CC`, the viability at 48 h, 10 µM in data set [1] worked out at 85.6%; in data set [2], 94.8%. The fold change (FC) in the data set listed under Homo sapiens was 6.65. The pIC50 in the data set on NCI/ADR-RES and in the data set with MCF7 was less than 4.00 in each case.

As to `C=C1[C@H](OC(=O)C(C)C)[C@@H](OC(C)=O)[C@@H](OC(C)=O)C(C)(C)/C=C/[C@H](C)[C@H](O)[C@@]2(O)C[C@@](C)(OC(=O)C(C)C)[C@H](OC(C)=O)[C@@H]2[C@H]1OC(=O)c1ccccc1`, the viability at 48 h, 10 µM in data set [1] came to 88%; in data set [2], 91.1%. For the same molecule, the fold change (FC) in the data set filed under Homo sapiens came out at 20.6. In addition, the pIC50 in the data set on NCI/ADR-RES was less than 4.00; in the data set with HEK293, 4.20; with MCF7, less than 4.00. Further, in the data set on P-gp, the selectivity ratio stood at 512. For the same molecule, in data set [3], the pEC50 is 6.90.

Turning to `C=C1[C@H](OC(=O)C(C)C)[C@@H](OC(C)=O)[C@@H](OC(C)=O)C(C)(C)/C=C/[C@H](C)C(=O)[C@@]2(O)C[C@@](C)(OC(C)=O)[C@H](OC(C)=O)[C@@H]2[C@H]1OC(=O)c1ccccc1`, the viability at 48 h, 10 µM in data set [1] is 92.4%; in data set [2], 90.3%. In addition, the fold change (FC) in the data set listed under Homo sapiens turned out to be 9.29. Also, the pIC50 in the data set with NCI/ADR-RES and in the data set on MCF7 was less than 4.00 in each case.

Take `C=C1CCC(=O)C(C)(C)/C=C/[C@H](C)C(=O)[C@@]2(OC(C)=O)C[C@H](C)[C@H](O)[C@@H]2[C@H]1OC(=O)c1ccccc1`: the viability at 48 h, 10 µM in data set [1] is 95.6%; in data set [2], 90.4%. The fold change (FC) in the data set filed under Homo sapiens stood at 3.52. Besides, the values for the pIC50 with NCI/ADR-RES and with MCF7 were 4.04 and 4.15, respectively.

For the molecule `CC(=O)O[C@H]1[C@@H](OC(C)=O)C(C)(C)/C=C/[C@H](C)[C@@H](OC(C)=O)[C@@]2(O)C[C@@](C)(OC(C)=O)[C@@H]3OC(=O)CC[C@@](O)([C@@H]1OC(=O)C(C)C)[C@H](OC(=O)c1ccccc1)[C@@H]32`, the viability at 48 h, 10 µM in data set [1] is 93.2%; in data set [2], more than 100%. Also, the fold change (FC) in the data set listed under Homo sapiens came to 17.1. The pIC50 in the data set with NCI/ADR-RES was 4.03; in the data set on HEK293 it was 4.27; in the data set on MCF7, 4.08. Moreover, in the data set with P-gp, the selectivity ratio was 368. Moreover, the pEC50 in data set [3] was 6.84.

Turning to `C=C1[C@H](OC(=O)C(C)C)[C@@H](OC(C)=O)[C@@H](OC(C)=O)C(C)(C)/C=C/[C@H](C)[C@H](OC(=O)c2ccccc2)[C@@]2(O)C[C@@](C)(OC(C)=O)[C@H](OC(C)=O)[C@@H]2[C@H]1OC(=O)C(C)C`, the viability at 48 h, 10 µM was 94.3% in data set [1] and 94.5% in data set [2]. Also, in the data set filed under Homo sapiens, the fold change (FC) was 10. The pIC50 in the data set with NCI/ADR-RES and in the data set on MCF7 was less than 4.00 throughout.

Turning to `CC(=O)O[C@H]1[C@@H](OC(C)=O)C(C)(C)[C@@H]2O[C@H]2[C@H](C)[C@H](OC(C)=O)[C@]2(O)[C@H]3[C@@H](OC(=O)c4ccccc4)[C@@](O)(CCC(=O)O[C@H]3[C@](C)(OC(C)=O)[C@H]2OC(C)=O)[C@@H]1OC(C)=O`, the values for the viability at 48 h, 10 µM in data set [1] and in data set [2] were 94.9% and 93%, respectively. In addition, in the data set filed under Homo sapiens, the fold change (FC) stood at 0.69. For the same molecule, the pIC50 in the data set with NCI/ADR-RES and in the data set with MCF7 was less than 4.00 each time.

On to `C=C1[C@@H](OC(C)=O)[C@@H]2[C@H](OC(=O)c3ccccc3)[C@](C)(OC(=O)C(C)C)C[C@]2(OC(C)=O)C(=O)[C@H](C)/C=C/C(C)(C)[C@H](OC(C)=O)[C@H](OC(C)=O)[C@H]1OC(=O)C(C)C`, for which the results for the viability at 48 h, 10 µM in data set [1] and in data set [2] were 92.3% and 91.2%, respectively. Moreover, in the data set listed under Homo sapiens, the fold change (FC) was found to be 11.2. For the same molecule, the values for the pIC50 in the data set on NCI/ADR-RES, with HEK293 and in the data set with MCF7 were less than 4.00, 4.41 and less than 4.00, respectively. For the same molecule, the selectivity ratio in the data set with P-gp was found to be 196. In data set [3], the pEC50 is 6.71.

Consider `C=C1[C@H](OC(C)=O)[C@H]2[C@@H](OC(C)=O)[C@@H](C)C[C@]2(OC(C)=O)C(=O)[C@@H](C)/C=C/C(C)(C)C(=O)[C@H](OC(C)=O)[C@H]1OC(=O)C(C)C`, for which the viability at 48 h, 10 µM in data set [1] was determined as 91.9%; in data set [2], 96.2%. For the same molecule, in the data set listed under Homo sapiens, the fold change (FC) was found to be 9.99. Moreover, the pIC50 in the data set with NCI/ADR-RES and in the data set on MCF7 was less than 4.00 in each case.

For the origin of these results see ChEMBL document CHEMBL4145504, “Jatrophane diterpenoids from Euphorbia sororia as potent modulators against P-glycoprotein-based multidrug resistance” (Eur J Med Chem, 2018).
